Source: the supplement of paper PMC4862054

Legend:
Conditions in all cases: 72 h
DU-4475 [1] = system: DU-4475
Procedure: (§1)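 Drug sensitivity and resistance testing (DSRT) of breast cancer cell lines in 384-well plates, 5 concentrations in 10-fold dilutions over a compound-specific 10,000-fold range. After 72 h, cytotoxicity was read by CellTox Green fluorescence and viability by CellTiter-Glo luminescence (multiplexed), normalised to DMSO and benzethonium chloride controls. EC50 is the inflection point of the fitted dose-response curve (bottom asymptote free, so it can be relative for partial curves) and is censored at the highest tested concentration. Rows with DSS 0 (no meaningful response) were excluded.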

MDA-MB-436 = system: MDA-MB-436
Procedure: as §1

HCC1599 [2] = system: HCC1599
Procedure: as §1

CAL-51 = system: CAL-51
Procedure: as §1

MDA-MB-468 = system: MDA-MB-468
Procedure: as §1

DU-4475 [3] = system: DU-4475; remark: listed apart in the source
In short: (§2)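 EC50 was fitted from dose-response curves and censored at the highest concentration tested. To build those curves, breast cancer cell lines (20 µl suspension) were seeded into 384-well plates containing compound at 5 concentrations in 10-fold steps over a compound-specific 10,000-fold range and incubated for 72 h. Readouts were CellTox Green fluorescence (485/520 nm) for cell death and then CellTiter-Glo luminescence for viability, with each plate normalised to 0.1 % DMSO and a positive kill control.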

MFM-223 = system: MFM-223
In short: as §2

HCC1599 [4] = system: HCC1599; remark: listed apart in the source
In short: as §2

HDQ-P1 = system: HDQ-P1
In short: as §2

HCC1143 = system: HCC1143
In short: as §2

EC50, CellTiter-Glo (HCC1599 [4]): 365 nM | EC50, CellTiter-Glo (HCC1143): 845 nM
Compound: NS(=O)(=O)OC[C@@H]1C[C@@H](n2ccc3c(N[C@H]4CCc5ccccc54)ncnc32)C[C@@H]1O [Pevonedistat]
EC50, CellTox Green (DU-4475 [1]): 327 nM | EC50, CellTox Green (MDA-MB-436): 1510 nM | EC50, CellTox Green (HCC1599 [2]): 1840 nM | EC50, CellTox Green (CAL-51): 82.6 nM | EC50, CellTox Green (MDA-MB-468): 436 nM | EC50, CellTiter-Glo (DU-4475 [3]): 137 nM | EC50, CellTiter-Glo (MFM-223): 155 nM | EC50, CellTiter-Glo (HDQ-P1): 1560 nM
